In brackets after ≈: the same amount, converted by molar mass.
Assays:
[1] = system: Mycobacterium tuberculosis; experiment: Antibacterial activity against Mycobacterium tuberculosis; type: functional, organism-based
[2] = system: Mycobacterium tuberculosis; experiment: Antibacterial activity against Mycobacterium tuberculosis H37Rv ATCC 27294 incubated for 6 weeks by MGIT assay; type: functional; details: H37Rv ATCC 27294, 1008 h
[3] = system: Mycobacterium tuberculosis; experiment: Antibacterial activity against Mycobacterium tuberculosis measured after 14 days; type: functional; details: 336 h, time 14 day
[4] = system: Mycobacterium tuberculosis; experiment: Antibacterial activity against Mycobacterium tuberculosis incubated for 5 days by Alamar blue staining method; type: functional; details: 120 h, time 5 day
[5] = system: Mycobacterium tuberculosis; experiment: Antibacterial activity against Mycobacterium tuberculosis H37Ra assessed as inhibition of bacterial growth incubated for 72 hrs by microbroth dilution method; type: functional
[6] = system: Mycobacterium tuberculosis; experiment: Antibacterial activity against Mycobacterium tuberculosis H37Rv ATCC 27294 by broth microdilution based microplate Alamar blue staining method; type: functional
[7] = system: Mycolicibacterium fortuitum; experiment: Antibacterial activity against Mycobacterium fortuitum ATCC 6841 measured after 24 hrs; type: functional
[8] = system: Mycolicibacterium fortuitum; experiment: Antibacterial activity against Mycobacterium fortuitum measured after 72 hrs by 96-well microtitre plate assay; type: functional
[9] = system: Mycobacterium tuberculosis; experiment: Antibacterial activity against Mycobacterium tuberculosis H37Ra ATCC 25177 assessed as no visible mycobacterial growth incubated for 7 to 8 days by light microscope based spectrophotometric analysis; type: functional; details: time 7-8 day
[10] = system: Mycobacterium tuberculosis; experiment: Antibacterial activity against Mycobacterium tuberculosis H37Rv ATCC 27294 incubated for 5 days by Alamar blue staining method; type: functional; details: H37Rv ATCC 27294, 120 h, time 5 day
[11] = system: Mycobacterium tuberculosis; experiment: Antibacterial activity against Mycobacterium tuberculosis H37Ra by MABA method; type: functional
Mycolicibacterium aurum = experiment: Antibacterial activity against Mycobacterium aurum measured after 72 hrs; type: functional
[12] = system: Mycolicibacterium smegmatis; experiment: Antibacterial activity against Mycobacterium smegmatis measured after 72 hrs; type: functional

Compound `O=C1c2c(O)ccnc2-c2nccc3c2c1nc1ccccc13` has an MIC [1] of over 12.6 µg/mL.

Compound `COc1ccc2c3c(c4cc(OC)c(OC)cc4c2c1)CN1CCC[C@H]1C3` has an MIC [2] of 12.5 µg/mL (≈ 34.4 µM).

In the case of `Cn1c(=O)ccc2ccccc21`, the MIC [3] is reported as 25 µg/mL (≈ 157 µM).

With `COc1cc(-c2ccccc2)nc2ccccc12` the MIC [4] was 6.25 µg/mL (≈ 26.6 µM).

`COc1ccc2c(c1OC)C(OC)N(C)c1c-2ccc2cc3c(cc12)OCO3` (stereo not drawn) was tested, and the MIC [4] was 12.5 µg/mL (≈ 32.9 µM).

In the case of `CCCCCc1cc(OC)c2ccccc2n1`, the MIC [3] is reported as 6.25 µg/mL (≈ 27.3 µM).

With `COc1cc2c(c3c[n+](C)c4c5cc6c(cc5ccc4c13)OCO6)OCO2` the MIC [4] was 12.5 µg/mL.

Compound `CCCC/C=C\CCCCCCCc1cc(=O)c2ccccc2n1C` has an MIC [5] of 5 µg/mL (≈ 14.7 µM).

`COc1ccc2cc1-c1cc(ccc1O)CC1NCCc3cc4c(cc31)Oc1c(c(OC)cc3c1C(C2)N(C)CC3)O4` (stereo not drawn) was tested, and the MIC [3] was 3.1 µg/mL (≈ 5.51 µM).

For `COc1ccc(CCC2CCc3ccccc3N2C)cc1OC` (stereo not drawn), the MIC [3] was 6 µg/mL (≈ 19.3 µM).

For `CC(=O)C[C@H]1CC2C(C3c4[nH]c5ccccc5c4CCN31)C(O)C13CC/C=C\CCCCN1CC21CC/C=C\CCCCNC13` (stereo partly drawn), the MIC [6] was 1.57 µg/mL (≈ 2.57 µM).

`CC(=O)C[C@@H]1CC2C(C3c4[nH]c5ccccc5c4CCN31)C(O)C13CC/C=C\CCCCN1CC21CC/C=C\CCCCNC13` (stereo partly drawn) showed an MIC [6] of 1.9 µg/mL (≈ 3.11 µM).

`COC(=O)C1=C2Nc3ccccc3C23CCN2C(O)C4(CC5CC67CC(=O)OC6CCN6CCC8(c9cccc(OC)c9N(C4)C58)C67)C4OCCC4(C1)C23` (stereo not drawn) gave an MIC [3] of 4 µg/mL (≈ 5.46 µM).

`COc1cc2c(cc1OC)-c1cc(CC(C)=O)c3cc4c(cc3c1N(C)C2)OCO4` showed an MIC [1] of 6.25 µg/mL (≈ 15.4 µM).

For `COc1cc2c(c3c1-c1ccc4cc5c(cc4c1N(C)C3OC)OCO5)OCO2` (stereo not drawn), the MIC [4] was 25 µg/mL (≈ 63.5 µM).

`COc1ccc2cc1-c1cc(ccc1O)CC1c3cc4c(cc3CCN1C)Oc1c(OC)cc3c(c1O4)C(C2)N(C)CC3` (stereo not drawn) showed an MIC [3] of 3.1 µg/mL (≈ 5.38 µM).

`On1ccc2c3ccccc3nc-2c1C1=CC2(O)CCC/C=C\CCCN3CCC1C1(CC4/C=C\CCCCN4C21)C3` (stereo not drawn) was tested, and the MIC [1] was 3.9 µg/mL (≈ 6.91 µM).

In the case of `COc1ccc2cc1Oc1ccc(cc1)CC1NCCc3cc(OC)c(cc31)Oc1c(OC)c(OC)cc3c1C(C2)N(C)CC3` (stereo not drawn), the MIC [3] is reported as 0.25 µg/mL (≈ 0.411 µM).

`COc1ccc(CCc2cc(OC)c3ccccc3n2)cc1OC` showed an MIC [3] of 6.25 µg/mL (≈ 19.3 µM).

Compound `COc1cc2c(cc1O)CCNC21C[S+]([O-])C2c3c(OC(C)=O)c(C)c4c(c3C(COC1=O)N1C(C#N)C3CC5CC(C)C(OC)C(O)C5C(C21)N3C)OCO4` (stereo not drawn) has an MIC [1] of 1.6 µg/mL (≈ 2.02 µM).

In the case of `CN1c2ccccc2CCC1CCc1ccc2c(c1)OCO2` (stereo not drawn), the MIC [3] is reported as 6.25 µg/mL (≈ 21.2 µM).

`COc1cc2c3c(OC)cc4c(c3c[n+](C)c2c2cc3c(cc12)OCO3)OCO4` gave an MIC [4] of 12.5 µg/mL.

`OC12C=C(c3nccc4c3[nH]c3ccccc34)C3CCN(CCCC/C=C\CC1)CC31CC34CCC(CCCN3C21)O4` (stereo not drawn) was tested, and the MIC [1] was 1.77 µg/mL (≈ 3.13 µM).

Compound `O=C1c2cccnc2-c2nccc3c2c1nc1ccccc13` [ASCIDIDEMIN] has an MIC [1] of 0.01 µg/mL (≈ 0.0353 µM).

In the case of `COc1ccc2c(c1)c(-c1c3c4c(cc5c(c4c4ccc(OC)cc14)OCO5)CCN3)c1c3c(cc4c(c32)OCO4)CCN1` [BIDEBILINE E], the MIC [3] is reported as 6.25 µg/mL (≈ 10.7 µM).

With `Cn1c2c3ccccc3nc-2c(-c2c3nc4ccccc4c-3n(C)c3ccccc23)c2ccccc21` [BISCRYPTOLEPINE] the MIC [7] was 6.25 µg/mL (≈ 13.5 µM).

`COc1ccc2c(c[n+](C)c3c4cc5c(cc4ccc23)OCO5)c1OC` [CHELERYTHRINE] showed an MIC [1] of 3.1 µg/mL.

Compound `Cc1ccnc2c1C(=O)c1ccccc1C2=O` [CLEISTOPHOLINE] has an MIC [4] of 12.5 µg/mL (≈ 56 µM).

`C[n+]1c2ccccc2cc2[n-]c3ccccc3c21` [CRYPTOLEPINE] showed an MIC [8] of 16 µg/mL (≈ 68.9 µM).

For `COc1cc(CCc2ccc3c(c2)OCO3)nc2ccccc12` [CUSPARINE], the MIC [3] was 6.25 µg/mL (≈ 20.3 µM).

In the case of `COc1c(O)ccc2c1cnc1c3cc4c(cc3ccc21)OCO4` [DECARINE], the MIC [9] is reported as 3.1 µg/mL (≈ 9.71 µM).

For `COc1cc2c(cc1OC)-c1c3c(cc4ccnc(c14)C2=O)OCO3` [DICENTRINONE], the MIC [10] was 50 µg/mL (≈ 149 µM).

Compound `CSC1=C(CCNC(C)=O)c2nc3ccccc3c3ccnc(c23)C1=O` [DIPLAMINE] has an MIC [1] of 6.18 µg/mL (≈ 17 µM).

Compound `CSc1cnc2c3c(nc4ccccc4c13)C(CCNC(C)=O)=CC2=O` [ISODIPLAMINE] has an MIC [1] of 6.18 µg/mL (≈ 17 µM).

For `O=C1c2scnc2-c2nccc3c2c1nc1ccccc13` [KUANONIAMINE A], the MIC [1] was 3.1 µg/mL (≈ 10.7 µM).

`CC(=O)NCCc1c2c3c(ccnc3c3ncsc13)-c1ccccc1N2` [KUANONIAMINE D] was tested, and the MIC [1] was 12.2 µg/mL (≈ 34 µM).

With `CC(=O)NCCc1c2c(c3nccc4c3c1Nc1ccccc1-4)OCS2` [LISSOCLINIDINE] the MIC [1] was 6.18 µg/mL (≈ 17 µM).

Work on `Cn1c2nc3ccccc3c-2cc2ccccc21` [NEOCRYPTOLEPINE] yielded an MIC [7] of 31 µg/mL (≈ 133 µM).

`COc1cc2c[n+](C)c3c4cc5c(cc4ccc3c2cc1OC)OCO5` [NITIDINE] showed an MIC [4] of 12.5 µg/mL.

Work on `COc1cccc2c1C(=O)c1nccc3cc4c(c-2c13)OCO4` [OXOSTEPHANINE] yielded an MIC [11] of 25 µg/mL (≈ 81.9 µM).

`C[n+]1cc2c3c(ccc2c2ccc4cc5c(cc4c21)OCO5)OCO3` [SANGUINARIUM] showed an MIC (Mycolicibacterium aurum) of 24.5 µg/mL and an MIC [12] of 24.5 µg/mL.

With `CC(=O)NCCc1c2c(c3nccc4c3c1Nc1ccccc1-4)NC(=O)CS2` [SHERMILAMINE B] the MIC [1] was 12.5 µg/mL (≈ 32 µM).

Reference: ChEMBL document CHEMBL5126535, “Quinoline heterocyclic containing plant and marine candidates against drug-resistant Mycobacterium tuberculosis: A systematic drug-ability investigation” (Eur J Med Chem, 2022)
